# In patent US20210308089A1, “METHODS OF TREATING AND/OR PREVENTING VIRAL INFECTIONS AND/OR DISEASES CAUSED BY VIRUSES IN A SUBJECT IN NEED THEREOF” (priority 2020, published 2021):
# Test system: patients of the REDUCE-IT and earlier EPA placebo-controlled trials
# Assay: Example 3: adverse events by risk ratio, icosapent ethyl vs placebo (candidate categories; infectious disease terms of interest)
# Details: ISS
compound,measurement,setting,value
"CC/C=C\C/C=C\C/C=C\C/C=C\C/C=C\CCCC(=O)OCC [icosapent ethyl, eicosapentaenoic acid ethyl ester]",AR: Cholesterol Increased (AE table),,0.9%
same,"AR: Chorea, Related (AE table)",,0.7%
same,"AR: Constipation, Related (AE table)",,0.5%
same,"AR: Diarrhea, Any Severity (AE table)",,9.8%
same,"AR: Diarrhea, Mild Severity (AE table)",,7.4%
same,"AR: Diarrhea, Related (AE table)",,8.4%
same,"AR: Flatulence, Any Severity (AE table)",,1.1%
same,"AR: Flatulence, Mild Severity (AE table)",,0.9%
same,"AR: Flatulence, Related (AE table)",,1.1%
same,"AR: Frequent Bowel Movements, Any Severity (AE table)",,0.2%
same,"AR: Frequent Bowel Movements, Mild Severity (AE table)",,0.2%
same,"AR: Frequent Bowel Movements, Related (AE table)",,0.2%
same,AR: Hot Flush (AE table),,0.6%
same,"AR: Huntington's Chorea, Any Severity (AE table)",,1.0%
same,"AR: Huntington's Chorea, Mild Severity (AE table)",,0.8%
same,AR: Menorrhagia (AE table),,0.4%
same,"AR: Muscle spasms, Related (AE table)",,0.2%
same,"AR: Nasopharyngitis, Any Severity (AE table)",,4.3%
same,"AR: Nasopharyngitis, Mild Severity (AE table)",,3.3%
same,AR: Urine Protein Present (AE table),,0.1%
same,"AR: Weight loss, Related (AE table)",,0.3%
same,ARR: Cholesterol Increased (AE table),,−1.4%
same,"ARR: Chorea, Related (AE table)",,−0.5%
same,"ARR: Constipation, Related (AE table)",,−0.8%
same,"ARR: Diarrhea, Any Severity (AE table)",,−1.6%
same,"ARR: Diarrhea, Mild Severity (AE table)",,−2.2%
same,"ARR: Diarrhea, Related (AE table)",,−1.5%
same,"ARR: Flatulence, Any Severity (AE table)",,−0.8%
same,"ARR: Flatulence, Mild Severity (AE table)",,−0.8%
same,"ARR: Flatulence, Related (AE table)",,−0.8%
same,"ARR: Frequent Bowel Movements, Any Severity (AE table)",,−0.6%
same,"ARR: Frequent Bowel Movements, Mild Severity (AE table)",,−0.4%
same,"ARR: Frequent Bowel Movements, Related (AE table)",,−0.6%
same,ARR: Hot Flush (AE table),,−0.3%
same,"ARR: Huntington's Chorea, Any Severity (AE table)",,−1.3%
same,"ARR: Huntington's Chorea, Mild Severity (AE table)",,−0.9%
same,ARR: Menorrhagia (AE table),,−0.6%
same,"ARR: Muscle spasms, Related (AE table)",,−0.0%
same,"ARR: Nasopharyngitis, Any Severity (AE table)",,−2.3%
same,"ARR: Nasopharyngitis, Mild Severity (AE table)",,−2.3%
same,ARR: Urine Protein Present (AE table),,−0.2%
same,"ARR: Weight loss, Related (AE table)",,−0.4%
same,NNT: Cholesterol Increased (AE table),,69
same,"NNT: Chorea, Related (AE table)",,187
same,"NNT: Constipation, Related (AE table)",,122
same,"NNT: Diarrhea, Any Severity (AE table)",,61
same,"NNT: Diarrhea, Mild Severity (AE table)",,45
same,"NNT: Diarrhea, Related (AE table)",,65
same,"NNT: Flatulence, Any Severity (AE table)",,121
same,"NNT: Flatulence, Mild Severity (AE table)",,129
same,"NNT: Flatulence, Related (AE table)",,121
same,"NNT: Frequent Bowel Movements, Any Severity (AE table)",,173
same,"NNT: Frequent Bowel Movements, Mild Severity (AE table)",,259
same,"NNT: Frequent Bowel Movements, Related (AE table)",,173
same,NNT: Hot Flush (AE table),,292
same,"NNT: Huntington's Chorea, Any Severity (AE table)",,77
same,"NNT: Huntington's Chorea, Mild Severity (AE table)",,109
same,NNT: Menorrhagia (AE table),,159
same,"NNT: Muscle spasms, Related (AE table)",,2007
same,"NNT: Nasopharyngitis, Any Severity (AE table)",,43
same,"NNT: Nasopharyngitis, Mild Severity (AE table)",,43
same,NNT: Urine Protein Present (AE table),,519
same,"NNT: Weight loss, Related (AE table)",,230
same,Risk Ratio (95% CI): Cholesterol Increased (AE table),,0.165 (0.036 to 0.759) 5
same,"Risk Ratio (95% CI): Chorea, Related (AE table)",,0.445(0.107 to 1.853) 3
same,"Risk Ratio (95% CI): Constipation, Related (AE table)",,0.148 (0.017 to 1.265) 5
same,"Risk Ratio (95% CI): Diarrhea, Any Severity (AE table)",,0.847 (0.603 to 1.191) 1
same,"Risk Ratio (95% CI): Diarrhea, Mild Severity (AE table)",,0.741 (0.498 to 1.103) 2
same,"Risk Ratio (95% CI): Diarrhea, Related (AE table)",,0.834 (0.575 to 1.210) 1
same,"Risk Ratio (95% CI): Flatulence, Any Severity (AE table)",,0.463 (0.152 to 1.408) 3
same,"Risk Ratio (95% CI): Flatulence, Mild Severity (AE table)",,0.424 (0.125 to 1.440) 3
same,"Risk Ratio (95% CI): Flatulence, Related (AE table)",,0.463 (0.152 to 1.408) 3
same,"Risk Ratio (95% CI): Frequent Bowel Movements, Any Severity (AE table)",,[0 drug vs 3 PBO]
same,"Risk Ratio (95% CI): Frequent Bowel Movements, Mild Severity (AE table)",,[0 drug vs 2 PBO]
same,"Risk Ratio (95% CI): Frequent Bowel Movements, Related (AE table)",,[0 drug vs 3 PBO]
same,Risk Ratio (95% CI): Hot Flush (AE table),,0.556 (0.125 to 2.474) 3
same,"Risk Ratio (95% CI): Huntington's Chorea, Any Severity (AE table)",,0.247 (0.067 to 0.908) 4
same,"Risk Ratio (95% CI): Huntington's Chorea, Mild Severity (AE table)",,0.318 (0.083 to 1.223) 4
same,Risk Ratio (95% CI): Menorrhagia (AE table),,0.185 (0.021 to 1.653) 5
same,"Risk Ratio (95% CI): Muscle spasms, Related (AE table)",,0.741 (0.046 to 11.826) 2
same,"Risk Ratio (95% CI): Nasopharyngitis, Any Severity (AE table)",,0.588 (0.344 to 1.004) 3
same,"Risk Ratio (95% CI): Nasopharyngitis, Mild Severity (AE table)",,0.494 (0.265 to 0.921) 3
same,Risk Ratio (95% CI): Urine Protein Present (AE table),,[0 drug vs 1 PBO]
same,"Risk Ratio (95% CI): Weight loss, Related (AE table)",,0.247 (0.026 to 2.369) 4
same,ARR,"Chorea, Related",−0.5%
same,NNT,"Chorea, Related",187
same,Risk Ratio (95% CI),"Chorea, Related",0.445 (0.107 to 1.853) 3
same,ARR,"Constipation, Related",−0.8%
same,NNT,"Constipation, Related",122
same,Risk Ratio (95% CI),"Constipation, Related",0.148 (0.017 to 1.265) 5
same,ARR,Cough,0.9%
same,NNT,Cough,−112
same,Risk Ratio (95% CI),Cough,1.928 (0.692 to 5.373) −3
same,ARR,"Diarrhea, Any Severity",−1.6%
same,NNT,"Diarrhea, Any Severity",61
same,Risk Ratio (95% CI),"Diarrhea, Any Severity",0.847 (0.603 to 1.191) 1
same,ARR,"Diarrhea, Mild Severity",−2.2%
same,NNT,"Diarrhea, Mild Severity",45
same,Risk Ratio (95% CI),"Diarrhea, Mild Severity",0.741 (0.498 to 1.103) 2
same,ARR,"Diarrhea, Related",−1.5%
same,NNT,"Diarrhea, Related",65
same,Risk Ratio (95% CI),"Diarrhea, Related",0.834 (0.575 to 1.210) 1
same,ARR,"Flatulence, Any Severity",−0.8%
same,NNT,"Flatulence, Any Severity",121
same,Risk Ratio (95% CI),"Flatulence, Any Severity",0.463 (0.152 to 1.408) 3
same,ARR,"Flatulence, Mild Severity",−0.8%
